Measurements taken from US10519132B2, “Isocorydine derivatives, preparation method and use thereof” (Lanzhou Institute of Chemical Physics, Chinese Academy of …, priority 2017, dated 2019).
In brackets after ≈: the same amount, converted by molar mass. Read-outs that look alike come from different tables or passages of the source.

Assays:
[1] = system: human brain glioma U251; experiment: MTT growth inhibition on U251; assay type: cell-based; details: U-251, after 48 h of action
Description: (§1) By using an MTT method, a sample solution to be tested was added to a 96-well plate in which cancer cells were adherently grown. Culturing was performed for a certain period, and the growth inhibition effect of a compound on a human cancer cell strain for primary screening was measured to determine the anti-cancer activity of the compound.
(§2) Cell culture: A cell incubator was set to conditions of 37° C., 5% CO2, and a saturated humidity, cells were cultured under these conditions, and the cell medium was a DMEM complete medium, wherein 10% fetal bovine serum, 100 IU/mL penicillin, and 100 μg/mL streptomycin were comprised.
(§3) The single cell suspension was diluted to 5×10^3/100 μL after counting, inoculated on a 96-well cell culture plate (triplicate), and adherently cultured overnight; […]
(§4) The culture liquid was discarded, 100 μL of DMSO was added, low-speed oscillation was performed for 10 min by placing on a shaker, and the spectrophotometric value of each well was measured at a wavelength of 490 nm by using a microplate reader. Statistical analysis was performed and tumor cell growth inhibition rate was calculated according to the equation: Growth inhibition rate=(OD value of control group−OD value of experimental group)/OD value of control group.

[2] = system: human breast cancer cell strain MAD-MB-231; experiment: MTT growth inhibition on MAD-MB-231; assay type: cell-based; details: MDA-MB-231, after 48 h of action
Description: as §1, §2, §3, §4

[3] = system: human liver cancer cell strain SMMC-7721; experiment: MTT growth inhibition on SMMC-7721; assay type: cell-based; details: concentration range of 10-40 μg/mL, one of 6 types of tumor cells
Description: as §1, §2, §3, §4

[4] = system: HepG2 cells; experiment: Cell cycle distribution by flow cytometry; assay type: cell-based, human; details: sorafenib 5 μg/mL, FICD 10 μg/mL, combination 5 μg/mL FICD+10 μg/mL sorafenib
Description: 1 mL of 70% precooled (−20° C.) ethanol was added to the cell precipitate, homogenized by pipetting, and fixed at 4° C. overnight. On the second day, HepG2 cells was collected by centrifugation, 2 mL of precooled PBS was added for washing 3 times, 500 μL of PBS containing 50 μg/mL […] (PI) and 100 μg/mL RNaseA was added, and incubation was performed at 4° C. under protection from light for 30 min. Detection was performed on a flow cytometer, and results can be seen in FIG. 9 and FIG. 10.

[5] = system: HepG2 cells; experiment: Apoptosis induction by laser confocal scanning microscope; assay type: cell-based, human; details: HepG2, 48 h
Description: Two solutions (a former one and a later one) were mixed, centrifugation was performed at 1000 r/min for 5 min, the supernatant was discarded, and washing was performed for 3 times with PBS. The cell precipitate was resuspended in Binding Buffer, 10 μL of a FITC-Annen V staining liquid was added, homogenized by pipetting slightly, and reaction was performed under protection from light. PI was added for staining for 15 min, centrifugation was performed, the supernatant was discarded, and washing was performed for 3 times again with PBS. A glass slide was loaded by applying the cell precipitate thereto and mounted with non-fluorescent buffering glycerol, a laser confocal scanning microscope was immediately used for observation and taking photographs at wavelengths of 488 nm and 560 nm. Meanwhile, cells without AnneixnV-FITC and PI added were used as a negative control.

[6] = system: C-Myc, Ki-67, CylinD1, β-Catenin protein; experiment: Western blotting, protein expression in HepG2 cells; assay type: cell-based, human; details: sorafenib 4 μg/mL, high FICD dosage 20 μg/mL, combination 4 μg/mL sorafenib+10 μg/mL FICD
Description: Method: Gel electrophoresis of protein samples. Gel formulation: All components were added to a small beaker according to a formulation of a separation gel, uniformly mixed with slightly shaking to prevent the generation of bubbles, quickly applied to a seam of a glass plate with a 1 mL pipette, and then blocked with double distilled water to prevent oxidation. After 30 min, the separation gel solidified, the double distilled water thereof was poured off, waster was suctioned with a filter paper, a 5% concentration gel was formulated, TEMED was finally loaded onto the glass plate, and a 1.0 mm comb was inserted into the concentration gel and placed at room temperature for 30 min. The comb was slightly, vertically, and carefully pulled up, various groups of 20 μL protein samples were pipetted with a microsyringe, an equal volume of a loading buffer and an equal volume of a loading buffer containing 3 μL of Marker were separately added to a loading well, an electrophoresis instrument was switched on after electrodes were plugged, gels were run at 75V for 30 min, and the voltage was changed to 120V and gels were run for 2 h when bromophenol blue reaches the separation gel. Membrane transfer: A PVDF membrane having a suitable size was cut according to the size of the gel, placed in a methanol solution for 1 min, lifted, and placed and soaked together with a well cut filter paper in a previously precooled membrane transfer buffer. A sponge pad, three layers of filter paper, a gel, three layers of filter paper, and a sponge pad, in this order from top to bottom, were placed in a membrane transfer tank, and a precooled membrane transfer buffer was then added. Several ice bags were placed circumferentially to prevent an excessively hot external environment, and electrodes were plugged and membrane transfer was performed at a constant current of […] for 2.5 hours. Blocking and incubation of antibodies: A transferred membrane was cut into desired bands, which were placed in a blocking solution of 5% skim milk powder, placed on a shaker, and shaken at room temperature at a low speed for 1 h. A primary antibody was diluted with the blocking solution, a corresponding antibody was pipetted and added to a zip lock bag, the PVDF membrane was then placed in the antibody dilution, bubbles in the zip lock bag were evacuated, and the zip lock bag was sealed and placed in a refrigerator at 4° C. overnight. The membrane was withdrawn from the zip lock bag on the second day, and placed in a clean dish. A TBST solution was added and washed 3 times on a low-speed shaker, 10 min for each time. […]

[7] = In vivo absorption in mice, intragastric versus intraperitoneal administration; design: species or system white Kunming mice; details: inferred from no statistical difference between administration manners
Excerpt: The aim of this experiment was to investigate in vivo tumor growth inhibition effect of FICD on white Kunming mice bearing ascites hepatoma H22 induced solid tumor, discuss in vivo absorption of FICD in mice, and investigate the druggability and the selection of administration manners of FICD, among different administration manners (intragastric administration and intraperitoneal injection administration). The specific protocol of investigation was as follows:
Test method: For the test method, see Example 24. Results can be seen in FIG. 15, FIG. 16, and Table 5.

[8] = system: ascites hepatoma H22 induced solid tumor; experiment: In vivo tumor growth inhibition in mice bearing H22; design: species or system white Kunming mice; details: for Tumor inhibition rate (%): Table 5
[9] = system: human cervical cancer Hela cell strains; experiment: MTT growth inhibition on Hela; details: Homo sapiens, HeLa;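 also: compound exposure of 24, 48 or 72 h in DMEM with 10% fetal bovine serum, MTT absorbance read at 490 nm, inhibition calculated relative to control group OD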
Description: as §1, §2
The single cell suspension was diluted to 5×10^3/100 μL after counting, inoculated on a 96-well cell culture plate (triplicate), and adherently cultured overnight;
After 24 h of adhesion, the complete medium was discarded, 100 μL-sample-solutions to be tested having different concentrations were sequentially added to the 96-well plate according to a concentration gradient, and incubations were continued for 24 h, 48 h, and 72 h;
The culture liquid was discarded, a 0.5 mg/mL MTT diluted working liquid was added, and incubation was performed for 4 h by placing in an incubator;
as §4
Culturing was performed for a certain period, the growth inhibition effect of a compound on 3 human cancer cell strains for primary screening was measured to determine the anti-cancer activity of the compound, and a growth inhibition curve was plotted.

- IC50 [1]: 16.8 ± 0.28 µg/mL (≈ 29.1 µM)
- IC50 [2]: 14.2 ± 0.66 µg/mL (≈ 24.6 µM)
- in vivo absorption after oral administration [7]: well absorbed
- IC50 ([9]; 48 h, read-out: IC50 Hela, after 48 h of action): 18.6 ± 0.29 µg/mL
- IC50 ([9]; read-out: IC50 HeLa, Table 1, MTT): 26.5 µM
- IC50 ([9]; read-out: IC50 Hela, Table 2, MTT): 26.5 µM
Structure (SMILES): COc1cc(NC(=O)Nc2ccc(Cl)c(C(F)(F)F)c2)c2c(c1O)-c1c(OC)c(OC)cc3c1C(C2)N(C)CC3 (centres unmarked) [Compound 1]
- growth inhibition activity [3]: certain growth inhibition activities
- cell cycle distribution compared to the blank control group [4]: cells significantly increased in the G2/M phase and decreased in the G0/G1 phase
- apoptosis and cell morphology, Anneixn V-FITC and PI double-staining [5]: apoptoses occurred during various phases
- expressions of C-Myc, Ki-67, CylinD1 and β-Catenin protein compared to the blank group [6]: significantly reduced
- tumor inhibition rates for three administration dosages ([8]; Example 25, 150, 100 and 50 mg/Kg, intragastric or intraperitoneal injection): ≥ 40%
- Tumor inhibition rate (%) ([8]; intragastric administration, high dosage 150 mg/Kg): 53.4%
- Tumor inhibition rate (%) ([8]; intragastric administration, low dosage 50 mg/Kg): 40.1%
- Tumor inhibition rate (%) ([8]; intragastric administration, middle dosage 100 mg/Kg): 48.2%
- Tumor inhibition rate (%) ([8]; intraperitoneal injection, high dosage 150 mg/Kg): 53.0%
- Tumor inhibition rate (%) ([8]; intraperitoneal injection, low dosage 50 mg/Kg): 40.3%
- Tumor inhibition rate (%) ([8]; intraperitoneal injection, middle dosage 100 mg/Kg): 46.3%
